Tests used:
[1] = test system: mRNA expressed from the genes (A) to (D) in rat liver; test: Behavior of genes (mRNA expression level, oligo-DNA microarray) in rat liver after 28-day oral administration; type: in vivo; details: for Behavior of gene caused by administration of chemical substance, Gene No. 4846 / Behavior of gene caused by administration of chemical substance, Gene No. 2026 / Behavior of gene caused by administration of chemical substance, Gene No. 4218 / Behavior of gene caused by administration of chemical substance, Gene No. 6182 / Behavior of gene caused by administration of chemical substance, Gene No. 5600: gene group (A); for Behavior of gene caused by administration of chemical substance, Gene No. 4846: Unigene No. Rn.144554; for Behavior of gene caused by administration of chemical substance, Gene No. 2026 / Behavior of gene caused by administration of chemical substance, Gene No. 4218: Unigene No. Rn.167075; for Behavior of gene caused by administration of chemical substance, Gene No. 6182: Unigene No. Rn.5834; for Behavior of gene caused by administration of chemical substance, Gene No. 5600: Unigene No. Rn.9836; for Behavior of gene caused by administration of chemical substance, Gene No. 1494 / Behavior of gene caused by administration of chemical substance, Gene No. 2045 / Behavior of gene caused by administration of chemical substance, Gene No. 2203: gene group (B); for Behavior of gene caused by administration of chemical substance, Gene No. 1494: Unigene No. Rn.1430; for Behavior of gene caused by administration of chemical substance, Gene No. 2045: Unigene No. Rn.19329; for Behavior of gene caused by administration of chemical substance, Gene No. 2203: Unigene No. Rn.21240; for Behavior of gene caused by administration of chemical substance, Gene No. 533 / Behavior of gene caused by administration of chemical substance, Gene No. 725 / Behavior of gene caused by administration of chemical substance, Gene No. 1163 / Behavior of gene caused by administration of chemical substance, Gene No. 4973 / Behavior of gene caused by administration of chemical substance, Gene No. 4095 / Behavior of gene caused by administration of chemical substance, Gene No. 1334 / Behavior of gene caused by administration of chemical substance, Gene No. 6620 / Behavior of gene caused by administration of chemical substance, Gene No. 6303 / Behavior of gene caused by administration of chemical substance, Gene No. 5878 / Behavior of gene caused by administration of chemical substance, Gene No. 1131 / Behavior of gene caused by administration of chemical substance, Gene No. 1562 / Behavior of gene caused by administration of chemical substance, Gene No. 1741 / Behavior of gene caused by administration of chemical substance, Gene No. 893 / Behavior of gene caused by administration of chemical substance, Gene No. 6026 / Behavior of gene caused by administration of chemical substance, Gene No. 154 / Behavior of gene caused by administration of chemical substance, Gene No. 1993 / Behavior of gene caused by administration of chemical substance, Gene No. 813 / Behavior of gene caused by administration of chemical substance, Gene No. 2494 / Behavior of gene caused by administration of chemical substance, Gene No. 2546 / Behavior of gene caused by administration of chemical substance, Gene No. 3776 / Behavior of gene caused by administration of chemical substance, Gene No. 3929 / Behavior of gene caused by administration of chemical substance, Gene No. 1119 / Behavior of gene caused by administration of chemical substance, Gene No. 6742 / Behavior of gene caused by administration of chemical substance, Gene No. 5634: gene group (C); for Behavior of gene caused by administration of chemical substance, Gene No. 533: Unigene No. Rn.106184; for Behavior of gene caused by administration of chemical substance, Gene No. 725: Unigene No. Rn.108075; for Behavior of gene caused by administration of chemical substance, Gene No. 1163: Unigene No. Rn.11766; for Behavior of gene caused by administration of chemical substance, Gene No. 4973: Unigene No. Rn.118529; for Behavior of gene caused by administration of chemical substance, Gene No. 4095: Unigene No. Rn.119024; for Behavior of gene caused by administration of chemical substance, Gene No. 1334 / Behavior of gene caused by administration of chemical substance, Gene No. 6620: Unigene No. Rn.120914; for Behavior of gene caused by administration of chemical substance, Gene No. 6303: Unigene No. Rn.123063; for Behavior of gene caused by administration of chemical substance, Gene No. 5878: Unigene No. Rn.143213; for Behavior of gene caused by administration of chemical substance, Gene No. 1131: Unigene No. Rn.144946; for Behavior of gene caused by administration of chemical substance, Gene No. 1562: Unigene No. Rn.14744; for Behavior of gene caused by administration of chemical substance, Gene No. 1741: Unigene No. Rn.1647; for Behavior of gene caused by administration of chemical substance, Gene No. 893: Unigene No. Rn.164817; for Behavior of gene caused by administration of chemical substance, Gene No. 6026: Unigene No. Rn.167685; for Behavior of gene caused by administration of chemical substance, Gene No. 154: Unigene No. Rn.185941; for Behavior of gene caused by administration of chemical substance, Gene No. 1993: Unigene No. Rn.18728; for Behavior of gene caused by administration of chemical substance, Gene No. 813: Unigene No. Rn.201760; for Behavior of gene caused by administration of chemical substance, Gene No. 2494: Unigene No. Rn.23969; for Behavior of gene caused by administration of chemical substance, Gene No. 2546: Unigene No. Rn.24561; for Behavior of gene caused by administration of chemical substance, Gene No. 3776: Unigene No. Rn.43232; for Behavior of gene caused by administration of chemical substance, Gene No. 3929: Unigene No. Rn.4620; for Behavior of gene caused by administration of chemical substance, Gene No. 1119: Unigene No. Rn.9757; for Behavior of gene caused by administration of chemical substance, Gene No. 6742: Unigene No. Rn.9779; for Behavior of gene caused by administration of chemical substance, Gene No. 5634: Unigene No. Rn.9862; for Behavior of gene caused by administration of chemical substance, Gene No. 5726: gene group (D), Unigene No. Rn.9939
In short: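 Groups of four male F344 SPF rats aged 5 weeks are gavaged once a day for 28 days with test chemical in solvent or with solvent alone at equal volume. Total RNA comes from liver taken on day 28. Fold change of 1.5 or 1/1.5 versus control, directionally consistent, defines significance.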

liver = details: in vivo; cited from earlier work
rodent = details: in vivo; cited from earlier work

Structure (SMILES) | Behavior of gene caused by administration of chemical substance, Gene No. 4846 [1] | Behavior of gene caused by administration of chemical substance, Gene No. 2026 [1] | Behavior of gene caused by administration of chemical substance, Gene No. 4218 [1] | Behavior of gene caused by administration of chemical substance, Gene No. 6182 [1] | Behavior of gene caused by administration of chemical substance, Gene No. 5600 [1] | Behavior of gene caused by administration of chemical substance, Gene No. 1494 [1] | Behavior of gene caused by administration of chemical substance, Gene No. 2045 [1] | Behavior of gene caused by administration of chemical substance, Gene No. 2203 [1] | Behavior of gene caused by administration of chemical substance, Gene No. 533 [1] | Behavior of gene caused by administration of chemical substance, Gene No. 725 [1] | Behavior of gene caused by administration of chemical substance, Gene No. 1163 [1] | Behavior of gene caused by administration of chemical substance, Gene No. 4973 [1] | Behavior of gene caused by administration of chemical substance, Gene No. 4095 [1] | Behavior of gene caused by administration of chemical substance, Gene No. 1334 [1] | Behavior of gene caused by administration of chemical substance, Gene No. 6620 [1] | Behavior of gene caused by administration of chemical substance, Gene No. 6303 [1] | Behavior of gene caused by administration of chemical substance, Gene No. 5878 [1] | Behavior of gene caused by administration of chemical substance, Gene No. 1131 [1] | Liver carcinogenicity (liver) | Carcinogenicity (rodent) | also measured
CC(O)CCl (stereo not shown) [TS079, 1-Chloro-2-propanol] | − | − | − | + | − | − | + | + | − | − | − | − | − | − | − | − | − | − | Cr− | C− | Behavior of gene caused by administration of chemical substance, Gene No. 1562 [1]: −; Behavior of gene caused by administration of chemical substance, Gene No. 1741 [1]: −; Behavior of gene caused by administration of chemical substance, Gene No. 893 [1]: −; Behavior of gene caused by administration of chemical substance, Gene No. 6026 [1]: −; Behavior of gene caused by administration of chemical substance, Gene No. 154 [1]: −; Behavior of gene caused by administration of chemical substance, Gene No. 1993 [1]: −; Behavior of gene caused by administration of chemical substance, Gene No. 813 [1]: −; Behavior of gene caused by administration of chemical substance, Gene No. 2494 [1]: −; Behavior of gene caused by administration of chemical substance, Gene No. 2546 [1]: −; Behavior of gene caused by administration of chemical substance, Gene No. 3776 [1]: −; Behavior of gene caused by administration of chemical substance, Gene No. 3929 [1]: −; Behavior of gene caused by administration of chemical substance, Gene No. 1119 [1]: −; Behavior of gene caused by administration of chemical substance, Gene No. 6742 [1]: −; Behavior of gene caused by administration of chemical substance, Gene No. 5634 [1]: −; Behavior of gene caused by administration of chemical substance, Gene No. 5726 [1]: +
O=[N+]([O-])c1cccc2ccccc12 [TS083, 1-Nitronaphthalene] | − | + | − | − | − | + | − | − | + | + | − | + | + | + | + | + | − | − | Cr− | C− | Behavior of gene caused by administration of chemical substance, Gene No. 1562 [1]: +; Behavior of gene caused by administration of chemical substance, Gene No. 1741 [1]: +; Behavior of gene caused by administration of chemical substance, Gene No. 893 [1]: +; Behavior of gene caused by administration of chemical substance, Gene No. 6026 [1]: +; Behavior of gene caused by administration of chemical substance, Gene No. 154 [1]: +; Behavior of gene caused by administration of chemical substance, Gene No. 1993 [1]: +; Behavior of gene caused by administration of chemical substance, Gene No. 813 [1]: +; Behavior of gene caused by administration of chemical substance, Gene No. 2494 [1]: −; Behavior of gene caused by administration of chemical substance, Gene No. 2546 [1]: +; Behavior of gene caused by administration of chemical substance, Gene No. 3776 [1]: +; Behavior of gene caused by administration of chemical substance, Gene No. 3929 [1]: +; Behavior of gene caused by administration of chemical substance, Gene No. 1119 [1]: +; Behavior of gene caused by administration of chemical substance, Gene No. 6742 [1]: +; Behavior of gene caused by administration of chemical substance, Gene No. 5634 [1]: −; Behavior of gene caused by administration of chemical substance, Gene No. 5726 [1]: −
O=P(OCCCl)(OCCCl)OCCCl [TS088, Tris(2-chloroethyl)phosphate] |  |  |  |  |  |  |  |  |  |  |  |  |  |  |  |  |  |  | Cr− | C+ | Behavior of gene caused by administration of chemical substance ([1]; rat, in vivo): − and +

Reference: US20110039721A1, “METHOD FOR PREDICTION ABOUT CARCINOGENICITY OF SUBSTANCE IN RODENT” (Chemicals Evaluation and Research Institute, priority 2007, published 2011)
